US7989451B2, “Tricyclic 1,2,4-triazine oxides and compositions for therapeutic use in cancer treatments” (Auckland Uniservices Limited, priority 2005, dated 2011)
Read-outs that look alike come from different tables or passages of the source.

How the values were obtained:
[1] = test system: human cervical carcinoma SiHa; test: Proliferation assay (IC50) under aerobic and hypoxic conditions, SiHa; type: cell-based; conditions: for IC50: 4 h drug exposure, sulforhodamine B; for HCR: hypoxic cytotoxicity ratio = IC50 aerobic/IC50 hypoxic
Method: (§1) Compounds representative of the invention were evaluated under both aerobic and hypoxic conditions in a proliferation assay (IC50), using two cell lines: human colon carcinoma HT29, and human cervical carcinoma SiHa (Table 1).
(§2) Drug exposures were performed in 96-well plates (Nunc) either using a 37 DC humidified incubator (20% O2, 5% CO2) or in the incubator compartment (37° C.) of an anaerobic chamber (Shell Lab) where palladium catalyst scrubbed gas (90% N2, 5% H2, 5% CO2) ensures severe anoxia (<0.001% O2). For each experiment, compounds were simultaneously tested under both oxic and hypoxic conditions and included TPZ as an internal control. An 8-methyl-5-nitroquinoline derivative, SN 24349, known to require very low oxygen concentrations for bioactivation (Siim et al., Br. J. Cancer 1994, 70, 596-603) was used to confirm that strict hypoxia was present during the experiment. […] Cell cultures were grown in αMEM (Gibco) containing 5% heat inactivated FCS and maintained in exponential growth phase. For each individual experiment an appropriate number of cells were seeded (HT29=1100; SiHa=1500) into wells in αMEM+10% FCS+10 mM added glucose+100 μM 2′-deoxycytidine (2′dCyd), and allowed to attach for 2-3 h. High glucose (final concentration 17 mM) and the presence of 2′-dCyd minimize hypoxia-induced cell cycle arrest. Cultures were then exposed to drugs, using 3-fold serial dilutions in duplicate, for a further 4 h. Subsequently cells were washed free of compound using complete media (without glucose/2′-dCyd) and allowed to grow for 5 (oxic) or 6 (anoxic) days. Plates were stained with sulforhodamine B as described previously (Wilson et al., J. Med. Chem. 1989, 32, 31-38) and IC50 values determined.
(§3) HCR=Hypoxic cytotoxicity ratio is defined as the ratio of IC50 values under aerobic and hypoxic conditions (IC50 aerobic/IC50 hypoxic).

[2] = test system: human colon carcinoma HT29; test: Proliferation assay (IC50) under aerobic and hypoxic conditions, HT29; type: cell-based; conditions: for IC50: 4 h drug exposure, sulforhodamine B; for HCR: hypoxic cytotoxicity ratio = IC50 aerobic/IC50 hypoxic
Method: as §1, §2, §3

[3] = Homo sapiens, hypoxic (anaerobic chamber, <0.001% O2), then 6 days growth, read-out: IC50 (μM) hypoxic
[4] = Homo sapiens, oxic (20% O2), then 5 days growth, read-out: IC50 (μM) oxic
[5] = Homo sapiens, HT-29, hypoxic (anaerobic chamber, <0.001% O2), then 6 days growth, read-out: IC50 (μM) hypoxic
[6] = Homo sapiens, HT-29, oxic (20% O2), then 5 days growth, read-out: IC50 (μM) oxic
[7] = hypoxic (anaerobic chamber, <0.001% O2), then 6 days growth, read-out: IC50 (μM) hypoxic
[8] = oxic (20% O2), then 5 days growth, read-out: IC50 (μM) oxic

melting point | IC50 [1, 3] [µM] | IC50 [1, 4] [µM] | IC50 [2, 5] [µM] | IC50 [2, 6] [µM] | IC50 [1, 7] [µM] | IC50 [1, 8] [µM] | IC50 [2, 7] [µM] | IC50 [2, 8] [µM] | Structure (SMILES) | HCR [1] | HCR [2]
275 to 277 °C | – | – | – | – | – | – | – | – | CC1Cc2cc3nc(N)n[n+]([O-])c3cc2C1 (centres unmarked) [Compound 94, 7-Methyl-7,8-dihydro-6H-indeno[5,6-e][1,2,4]triazin-3-amine 1-Oxide] | – | –
– | 46 ± 11 | 1750 ± 148 | 93 ± 11 | 1390 ± 349 | – | – | – | – | COC1CCCN(CCNc2n[n+]([O-])c3cc4c(cc3[n+]2[O-])CCC4)C1 (centres unmarked) [Compound 41, N-[2-(3-Methoxy-1-piperidinyl)ethyl]-7,8-dihydro-6H-indeno[5,6-e][1,2,4]triazin-3-amine 1,4-Dioxide] | 46 ± 17 | 19 ± 0.3
121 to 123 °C | – | – | – | – | – | – | – | – | [O-][n+]1nc(NCCN2CCCCCC2)nc2cc3c(cc21)CCC3 [Compound 46, N-[2-(1-Azepanyl)ethyl]-7,8-dihydro-6H-indeno[5,6-e][1,2,4]triazin-3-amine 1-Oxide] | – | –
140 to 142 °C | – | – | – | – | – | – | – | – | O=CCCc1nc2cc3c(cc2[n+]([O-])n1)CCO3 [Compound 214, 3-(1-Oxido-7,8-dihydrofuro[2,3-g][1,2,4]benzotriazin-3-yl)propanal] | – | –
140 to 142 °C | – | – | – | – | – | – | – | – | CC1Cc2cc3nc(I)n[n+]([O-])c3cc2C1 (centres unmarked) [Compound 100, 3-Iodo-7-methyl-7,8-dihydro-6H-indeno[5,6-e][1,2,4]triazine 1-Oxide] | – | –
153 to 155 °C | – | – | – | – | – | – | – | – | CCNc1n[n+]([O-])c2cc3c(cc2[n+]1[O-])CC(CO)C3 (centres unmarked) [Compound 127, [3-(Ethylamino)-1,4-dioxido-7,8-dihydro-6H-indeno[5,6-e][1,2,4]triazin-7-yl]methanol] | – | –
152 to 154 °C | – | – | – | – | – | – | – | – | [O-][n+]1nc(NCCCN2CCOCC2)nc2cc3c(cc21)CCO3 [Compound 211, N-[3-(4-Morpholinyl)propyl]-7,8-dihydrofuro[2,3-g][1,2,4]benzotriazin-3-amine 1-Oxide] | – | –
230 to 235 °C | – | – | – | – | – | – | – | – | Nc1nc2cc3c(cc2[n+]([O-])n1)CC(CCO)C3 (centres unmarked) [Compound 157, 2-(3-Amino-1-oxido-7,8-dihydro-6H-indeno[5,6-e][1,2,4]triazin-7-yl)ethanol] | – | –
275 to 279 °C (dec.) | – | – | – | – | – | – | – | – | Nc1nc2ccc3c(c2[n+]([O-])n1)CCCO3 [Compound 234, 9,10-Dihydro-8H-chromeno[6,5-e][1,2,4]triazin-3-amine 1-Oxide] | – | –
150 to 151 °C | – | – | – | – | – | – | – | – | CCN(CC)CCNc1nc2cc3c(cc2[n+]([O-])n1)CCO3 [Compound 209, N^1,N^1-Diethyl-N^2-(1-oxido-7,8-dihydrofuro[2,3-g][1,2,4]benzotriazin-3-yl)-1,2-ethanediamine] | – | –
– | 0.67 | 43.8 | 4.1 | 59.1 | – | – | – | – | CN(C)CCNc1n[n+]([O-])c2c3c(ccc2[n+]1[O-])OCCC3 [Compound 237, N^1-(1,4-Dioxido-9,10-dihydro-8H-chromeno[6,5-e][1,2,4]triazin-3-yl)-N^2,N^2-dimethyl-1,2-ethanediamine] | 66 | 14
– | 0.32 ± 0.09 | 194 ± 120 | 0.54 ± 0.07 | 195 ± 99 | – | – | – | – | CN(C)CCCc1n[n+]([O-])c2cc3c(cc2[n+]1[O-])CCC3 [Compound 79, N-[3-(1,4-Dioxido-7,8-dihydro-6H-indeno[5,6-e][1,2,4]triazin-3-yl)propyl]-N,N-dimethylamine] | 738 ± 523 | 386 ± 213
– | 0.35 ± 0.01 | 133 ± 42 | 0.63 ± 0.05 | 161 ± 48 | – | – | – | – | [O-][n+]1nc(CCCN2CCCC2)[n+]([O-])c2cc3c(cc21)CCC3 [Compound 85, 3-[3-(1-Pyrrolidinyl)propyl]-7,8-dihydro-6H-indeno[5,6-e][1,2,4]triazine 1,4-Dioxide] | 385 ± 125 | 249 ± 55
– | 3.6 ± 0.5 | 145 ± 29 | 11 ± 3 | 188 ± 51 | – | – | – | – | [O-][n+]1nc(NCCCN2CCOCC2)[n+]([O-])c2cc3c(cc21)OCCC3 [Compound 244, N-[3-(4-Morpholinyl)propyl]-7,8-dihydro-6H-chromeno[6,7-e][1,2,4]triazin-3-amine 1,4-Dioxide] | 41 ± 10 | 19 ± 5
– | 1.1 | 143 | 4.2 | 254 | – | – | – | – | CCN(CC)CCNc1n[n+]([O-])c2cc3c(cc2[n+]1[O-])CCC3 [Compound 27, N^1-(1,4-Dioxido-7,8-dihydro-6H-indeno[5,6-e][1,2,4]triazin-3-yl)-N^2,N^2-diethyl-1,2-ethanediamine] | 133 | 61
– | 2.6 ± 0.5 | 127 ± 14 | 6.3 ± 0.8 | 158 ± 19 | – | – | – | – | [O-][n+]1nc(NCCCN2CCOCC2)[n+]([O-])c2cc3c(cc21)CCCC3 [Compound 180, N-[3-(4-Morpholinyl)propyl]-6,7,8,9-tetrahydronaphtho[2,3-e][1,2,4]triazin-3-amine 1,4-Dioxide] | 54 ± 16 | 25 ± 3
– | 2.8 ± 1.2 | 217 ± 52 | 7.1 ± 0.6 | 399 ± 148 | – | – | – | – | [O-][n+]1nc(NCCN2CCCOCC2)[n+]([O-])c2cc3c(cc21)CCC3 [Compound 49, N-[2-(1,4-Oxazepan-4-yl)ethyl]-7,8-dihydro-6H-indeno[5,6-e][1,2,4]triazin-3-amine 1,4-Dioxide] | 86 ± 18 | 58 ± 26
– | 9.9 ± 1.4 | 245 ± 60 | 19 ± 2 | 310 ± 109 | – | – | – | – | [O-][n+]1nc(NCCN2CCOCC2)[n+]([O-])c2cc3c(cc21)CCC3 [Compound 45, N-[2-(4-Morpholinyl)ethyl]-7,8-dihydro-6H-indeno[5,6-e][1,2,4]triazin-3-amine 1,4-Dioxide] | 28 ± 11 | 17 ± 6
– | 1.3 | 95 ± 12 | 3.6 ± 1.1 | 121 ± 21 | – | – | – | – | CCc1n[n+]([O-])c2cc3c(cc2[n+]1[O-])CC(CCN1CCOCC1)C3 (centres unmarked) [Compound 164, 3-Ethyl-7-[2-(4-morpholinyl)ethyl]-7,8-dihydro-6H-indeno[5,6-e][1,2,4]triazine 1,4-Dioxide] | 84 | 36 ± 5
– | 10.4 ± 0.6 | 231 ± 64 | 22 ± 1 | 87 ± 3 | – | – | – | – | N#CC1CCN(CCCNc2n[n+]([O-])c3cc4c(cc3[n+]2[O-])CCC4)C1 (centres unmarked) [Compound 57, 1-{3-[(1,4-Dioxido-7,8-dihydro-6H-indeno[5,6-e][1,2,4]triazin-3-yl)amino]propyl}-3-pyrrolidinecarbonitrile] | 22 ± 6 | 4 ± 0.1
– | 0.85 | 36 ± 32 | 1.5 | 6.2 | – | – | – | – | CCN1Cc2cc3c(cc2C1)[n+]([O-])c(N)n[n+]3[O-] [Compound 250, 7-Ethyl-7,8-dihydro-6H-[1,2,4]triazino[5,6-f]isoindol-3-amine 1,4-Dioxide] | 80 | –
– | 0.58 ± 0.19 | 300 ± 162 | 1.3 ± 0.2 | 262 ± 83 | – | – | – | – | COC1CN(CCCc2n[n+]([O-])c3cc4c(cc3[n+]2[O-])CCC4)C1 [Compound 83, 3-[3-(3-Methoxy-1-azetidinyl)propyl]-7,8-dihydro-6H-indeno[5,6-e][1,2,4]triazine 1,4-Dioxide] | 640 ± 411 | 249 ± 129
– | 0.26 ± 0.08 | 219 ± 96 | 0.37 ± 0.05 | 202 ± 72 | – | – | – | – | [O-][n+]1nc(CCCN2CCCCC2)[n+]([O-])c2cc3c(cc21)CCC3 [Compound 87, 3-[3-(1-Piperidinyl)propyl]-7,8-dihydro-6H-indeno[5,6-e][1,2,4]triazine 1,4-Dioxide] | 1000 ± 431 | 598 ± 233
– | 1 | 62 | 3.4 | 60.5 | – | – | – | – | CN(C)CCNc1n[n+]([O-])c2c3c(ccc2[n+]1[O-])CCCC3 [Compound 173, N^1-(1,4-Dioxido-7,8,9,10-tetrahydronaphtho[2,1-e][1,2,4]triazin-3-yl)-N^2,N^2-dimethyl-1,2-ethanediamine] | 64 | 18
– | – | – | – | – | 13.9 | 460 | 37.6 | 902 | [O-][n+]1nc(NCCCN2CCOCC2)[n+]([O-])c2ccc3c(c21)CCC3 [Compound 15, N-[3-(1-Morpholinyl)propyl]-8,9-dihydro-7H-indeno[5,4-e][1,2,4]triazin-3-amine 1,4-Dioxide] | 33 | 24
